Experimental data published in US11708422B2, “Mitigation of lung injury” (The Trustees Of The University Of Pennsylvania, priority 2016, dated 2023).
“Also recorded” adds a separate entry of the source.

How the values were obtained:
RAEC monolayers [1] = test: Stretch-associated permeability of RAEC monolayers (cyclic stretch); format: cell-based, rat; settings: 10 min of stretch; for stretch-associated permeability: pretreated, vs vehicle controls
Method: As evidence that NRG1, HER2, and HER3 regulate stretch-associated increases in permeability, RAEC monolayers (N≥3-7/group) were exposed to 10 min of stretch, and compared vehicle controls (VC, black bars, FIG. 16—Appendix I) with those pretreated microRNA miR15-b to reduce NRG1 expression (FIG. 7, APPROACH—Appendix I), TAPI2 to inhibit ADAM17 and NRG1 cleavage (diagonal striped bars, FIG. 16—Appendix I), HER3 mAb to inhibit NRG1 binding (dark gray bars), or AG825 (white bars) to inhibit HER2 activation.
each outcome measure, at each timepoint), at 0, 25, 37% ASA. To assess the effects of a longer stretch duration, RAEC monolayers from additional isolations (n=7 rats) were also subjected to cyclic stretch ASA of 0% (control) or 25% for 6 hrs. […] In RAECs, results were compared to stretched and unstretched monolayers with separate treatments to evaluate downstream signaling pathway inhibition of ERK (U0126), PI3K (Wortmannin), Rac1 (EHT-1864 and ERK 1/2 siRNA [97] and LIMK1 (BMS4). Additional groups had NRG1 expression decreased by overexpressing miRNA-15b (negative regulator of NRG1), using scrambled oligonucleotide as a negative control. As a validation of or hierarchical platform, TJ expression, phosphorylation and arrangement results in PCLS were compared with RAECs. In all groups, monolayers were assigned to one of four quantitative outcome evaluations: alveolar paracellular permeability via BODIPY-oubain and streptavidin-FITC methods (see INNOVATION—Appendix I), TJ and actin arrangement by fixing RAECs and PCLSs for qualitative immunofluorescence, total and phosphorylated TJ content via Western blot, or ZO-1-bound TJ proteins by isolating protein for co-IP using ZO-1 as bait, followed by Western blotting for occludin, claudins 4, 7, and 18, and F-actin in the ZO-1 protein fraction.

RAEC monolayers [2] = test: TJ protein dissociation from ZO-1 (co-IP with ZO-1 as bait) in stretched RAEC monolayers; format: cell-based, rat; settings: RAECs, 10 min of cyclic stretch
Excerpt: In the extracellular domain, the TJ is composed of claudins and occludin bound to TJ proteins of neighboring cells. In the intracellular domain, the claudins and occludin bind to actin via ZO-1. […] The present study tests the hypothesis that TJ dissociation between the ZO1 and the claudins and occludin is the primary causal mechanism for HER2-HER3 mediated barrier disruption. As preliminary evidence, RAEC monolayers (N=4) that were pretreated with NRG1 cleavage inhibitor TAPI-2, HER2 inhibitor AG825, or vehicle (VC) were stretched. […] The present study also confirmed stretch-induced TJ protein dissociation in lung slices.
each outcome measure, at each timepoint), at 0, 25, 37% ASA. To assess the effects of a longer stretch duration, RAEC monolayers from additional isolations (n=7 rats) were also subjected to cyclic stretch ASA of 0% (control) or 25% for 6 hrs. For every isolation, functional relationships will be confirmed in unstretched and stretched control groups treated with AG825 (HER2 inhibitor), anti-HER3ab (HER3 inhibitor), and tempol or tiron (superoxide scavenger), and compared with unstretched RAEC and PCLS treated with PMA to activate HER3 via NRG1 shedding as a positive control. In RAECs, results were compared to stretched and unstretched monolayers with separate treatments to evaluate downstream signaling pathway inhibition of ERK (U0126), PI3K (Wortmannin), Rac1 (EHT-1864 and ERK 1/2 siRNA [97] and LIMK1 (BMS4). Additional groups had NRG1 expression decreased by overexpressing miRNA-15b (negative regulator of NRG1), using scrambled oligonucleotide as a negative control. As a validation of or hierarchical platform, TJ expression, phosphorylation and arrangement results in PCLS were compared with RAECs. In all groups, monolayers were assigned to one of four quantitative outcome evaluations: alveolar paracellular permeability via BODIPY-oubain and streptavidin-FITC methods (see INNOVATION—Appendix I), TJ and actin arrangement by fixing RAECs and PCLSs for qualitative immunofluorescence, total and phosphorylated TJ content via Western blot, or ZO-1-bound TJ proteins by isolating protein for co-IP using ZO-1 as bait, followed by Western blotting for occludin, claudins 4, 7, and 18, and F-actin in the ZO-1 protein fraction.

rodent model of VILI = test: In vivo rodent model of VILI (large tidal volume mechanical ventilation); parameters: species or system rat; settings: rats, Vt=25 ml/kg for 4 hrs, PEEP=0, AG825 1.67 mg/kg/day IP, 3 days
Method: Ventilated rats received one of […] treatments, intratracheal TAPI2 (used in vivo to inhibit NRG1 sheddase ADAM17) or […] AG825 or intravenous trastuzumab (to inhibit HER2), or will serve as ventilated vehicle-treated controls. Treatment windows were varied from 3 days prior ventilation to concurrent application, to identify an optimal, clinically-relevant therapeutic dose and timing. Dynamic compliance will be measured every 30 min. All animals were injected with FITC-albumin prior to ventilation, and alveolar permeability assessed prior to sacrifice by quantifying fluorescence of bronchoalveolar lavage (BAL) fluid normalized to serum fluorescence. Lungs were formalin-fixed after BAL, and hematoxylin/eosin stained sections were evaluated for hyaline membrane formation, interstitial edema, margination and infiltration of neutrophils, as well as intra-alveolar and perivascular hemorrhage. Compliance, permeability, and lung histology were compared across groups.

[3] = system: mice treated with bleomycin to induce lung injury; settings: relative to untreated mice; cited from earlier work

Structure (SMILES): COc1cc(/C=C(\C#N)C(N)=O)cc(CSc2nc3ccccc3s2)c1O [AG825]
- barrier properties vs. unstretched VC (RAEC monolayers [1]): maintained barrier properties at unstretched levels
- stretch-associated permeability (RAEC monolayers [1]): significantly reduced stretch-associated permeability
- TJ dissociation with stretch (RAEC monolayers [2]): reduces stretch-induced tight junction dissociation; also recorded: prevented
- levels of TJ bound to ZO-1 after stretch vs unstretched controls (RAEC monolayers [2]): equal or greater after stretch than unstretched controls
- protection against VILI (rodent model of VILI): dramatically protects against VILI
- lung compliance (rodent model of VILI; 1.67 mg/kg/day): preserves lung compliance; also recorded: significant improvements in lung compliance
- permeability (barrier properties) in vivo (rodent model of VILI; 1.67 mg/kg/day): preserves barrier properties/moderates unwanted permeability; also recorded: significant improvements in lung compliance and permeability

Structure (SMILES): CC(C)C[C@H](CC(=O)NO)C(=O)N[C@H](C(=O)N[C@@H](C)C(=O)NCCN)C(C)(C)C [TAPI2]
- alveolar protein content [3]: decreased alveolar protein content
- stretch-associated permeability (RAEC monolayers [1]): significantly reduced stretch-associated permeability
- TJ dissociation with stretch (RAEC monolayers [2]): reduces stretch-induced tight junction dissociation; also recorded: prevented
- levels of TJ bound to ZO-1 after stretch vs unstretched controls (RAEC monolayers [2]): equal or greater after stretch than unstretched controls
